Data taken from patent US5077407A, “Substituted 2-[monoannelated (3,4-,4,5-, and 5,6-) pyridylalkylenesulfinyl]benzimidazoles” (The Upjohn Company, priority 1988, dated 1991).
Like-named read-outs stand apart in the source and are kept apart here. Blank lines part the entries; values can stand above or below the compound they belong to.

What was measured:
(H^+ -K^+)ATP-ase = molecular target: T1, (H^+ -K^+)ATP-ase (Rattus norvegicus, UniProt P09626); experiment: in vivo inactivation of (H+-K+)ATP-ase in the rat; conditions: for t1/2 of inhibition of rat gastric (H+ + K+) ATPase activity (duration of action): 10 mg/kg subcutaneously
T1 construct: from tissue; host or cells: stomach of the living rat (subcutaneous dosing)
T1 sequence (P09626 2-1033 limits assumed): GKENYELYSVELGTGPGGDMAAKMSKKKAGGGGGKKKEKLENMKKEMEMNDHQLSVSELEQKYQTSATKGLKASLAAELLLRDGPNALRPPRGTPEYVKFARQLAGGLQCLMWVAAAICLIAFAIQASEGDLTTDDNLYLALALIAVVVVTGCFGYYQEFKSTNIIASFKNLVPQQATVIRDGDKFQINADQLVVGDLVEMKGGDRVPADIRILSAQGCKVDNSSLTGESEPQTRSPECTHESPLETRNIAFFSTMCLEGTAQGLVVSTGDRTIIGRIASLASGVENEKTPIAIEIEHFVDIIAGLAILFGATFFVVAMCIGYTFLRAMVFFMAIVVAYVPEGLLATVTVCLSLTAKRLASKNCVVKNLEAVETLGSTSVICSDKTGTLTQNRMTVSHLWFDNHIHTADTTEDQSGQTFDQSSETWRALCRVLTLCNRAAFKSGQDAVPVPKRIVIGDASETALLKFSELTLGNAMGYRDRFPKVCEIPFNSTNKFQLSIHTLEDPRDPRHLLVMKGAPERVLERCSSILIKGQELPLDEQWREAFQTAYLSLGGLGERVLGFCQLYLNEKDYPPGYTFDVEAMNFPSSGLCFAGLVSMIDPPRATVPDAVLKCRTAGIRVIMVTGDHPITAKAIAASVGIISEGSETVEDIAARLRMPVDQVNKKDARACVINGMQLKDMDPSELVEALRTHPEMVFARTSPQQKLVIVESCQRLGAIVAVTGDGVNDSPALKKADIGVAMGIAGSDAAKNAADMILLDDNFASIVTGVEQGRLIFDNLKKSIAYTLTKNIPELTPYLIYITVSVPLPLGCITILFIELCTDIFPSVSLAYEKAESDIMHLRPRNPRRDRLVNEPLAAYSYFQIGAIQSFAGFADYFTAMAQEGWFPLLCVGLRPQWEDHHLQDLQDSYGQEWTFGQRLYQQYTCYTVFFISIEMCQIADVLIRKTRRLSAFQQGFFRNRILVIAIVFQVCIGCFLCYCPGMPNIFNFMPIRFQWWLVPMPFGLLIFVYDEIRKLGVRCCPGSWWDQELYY
T1 sequence (P18598 whole entry partner): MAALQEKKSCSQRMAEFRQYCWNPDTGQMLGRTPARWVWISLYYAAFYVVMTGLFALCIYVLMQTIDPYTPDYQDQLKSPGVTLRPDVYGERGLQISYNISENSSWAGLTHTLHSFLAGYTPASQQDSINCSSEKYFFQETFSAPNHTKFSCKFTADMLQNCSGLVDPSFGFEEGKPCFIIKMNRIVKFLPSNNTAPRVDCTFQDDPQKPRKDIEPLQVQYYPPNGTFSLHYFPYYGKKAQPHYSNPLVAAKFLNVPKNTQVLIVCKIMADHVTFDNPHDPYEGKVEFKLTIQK
Source text: Certain of the compounds of this invention are preferred because of their long duration of action when administered parenterally (e.g., subcutaneously).

gastric acid secretion = experiment: rat gastric antisecretory assay; type: in vivo
gastric(H^+ -K^+)ATP-ase = molecular target: T2, gastric(H^+ -K^+)ATP-ase (Sus scrofa, UniProt P19156); experiment: inhibition of K+-dependent ATP hydrolysis by isolated hog gastric membranes enriched with gastric (H+-K+)ATP-ase; type: biochemical; conditions: read-out: ED50, inhibition of K+-dependent ATP hydrolysis
T2 construct: isolated hog gastric membranes; from tissue; host or cells: hog gastric membranes
T2 sequence (P19156 2-1034 limits assumed): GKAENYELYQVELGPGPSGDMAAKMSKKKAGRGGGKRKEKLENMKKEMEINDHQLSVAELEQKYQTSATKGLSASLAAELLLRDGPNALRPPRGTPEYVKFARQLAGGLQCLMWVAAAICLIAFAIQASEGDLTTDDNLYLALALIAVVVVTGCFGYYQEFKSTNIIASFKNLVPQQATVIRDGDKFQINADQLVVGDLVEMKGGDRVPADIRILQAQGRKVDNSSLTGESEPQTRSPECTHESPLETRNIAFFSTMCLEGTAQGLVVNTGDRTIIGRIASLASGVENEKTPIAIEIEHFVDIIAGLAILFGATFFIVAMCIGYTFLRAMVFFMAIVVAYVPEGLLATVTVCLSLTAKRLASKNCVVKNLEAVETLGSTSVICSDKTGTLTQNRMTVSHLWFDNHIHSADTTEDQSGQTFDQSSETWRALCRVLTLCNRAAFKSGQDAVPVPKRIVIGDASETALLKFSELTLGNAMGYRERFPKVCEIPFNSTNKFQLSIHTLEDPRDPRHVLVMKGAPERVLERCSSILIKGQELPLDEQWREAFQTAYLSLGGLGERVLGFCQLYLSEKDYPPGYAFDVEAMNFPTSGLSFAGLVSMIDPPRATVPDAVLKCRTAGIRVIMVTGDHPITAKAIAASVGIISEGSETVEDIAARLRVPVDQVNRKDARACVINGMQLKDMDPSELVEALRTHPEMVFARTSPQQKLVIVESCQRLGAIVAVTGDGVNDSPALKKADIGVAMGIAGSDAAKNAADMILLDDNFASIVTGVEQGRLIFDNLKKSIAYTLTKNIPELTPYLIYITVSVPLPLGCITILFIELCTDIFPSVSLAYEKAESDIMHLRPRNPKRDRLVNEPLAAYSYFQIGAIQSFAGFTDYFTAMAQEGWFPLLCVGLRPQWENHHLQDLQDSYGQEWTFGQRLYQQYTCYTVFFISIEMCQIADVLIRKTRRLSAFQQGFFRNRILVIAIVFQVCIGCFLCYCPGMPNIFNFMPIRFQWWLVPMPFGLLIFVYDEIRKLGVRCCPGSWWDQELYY
T2 sequence (P18434 whole entry partner): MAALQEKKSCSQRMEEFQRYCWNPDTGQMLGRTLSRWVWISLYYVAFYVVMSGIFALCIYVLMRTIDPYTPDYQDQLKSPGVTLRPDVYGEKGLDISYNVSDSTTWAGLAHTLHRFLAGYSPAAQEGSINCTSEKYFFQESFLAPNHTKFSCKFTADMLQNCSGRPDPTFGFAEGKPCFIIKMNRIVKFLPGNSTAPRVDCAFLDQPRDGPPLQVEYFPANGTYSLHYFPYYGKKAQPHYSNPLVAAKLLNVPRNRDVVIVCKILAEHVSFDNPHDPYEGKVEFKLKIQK

[1] = system: acid secretion in isolated gastric glands; experiment: inhibition of acid secretion in isolated gastric glands of the rabbit; type: cell-based; conditions: Oryctolagus cuniculus, read-out: ID50, inhibition of acid secretion

t1/2 of inhibition of rat gastric (H+ + K+) ATPase activity (duration of action) ((H^+ -K^+)ATP-ase): 48 h
Compound: [O-][S+](Cc1nccc2c1CCCS2)c1nc2ccccc2[nH]1 (stereo not shown) [Example 10, 2-[(5-Thia-5,6,7,8-tetrahydroisoquinolin-1-ylmethyl)sulfinyl]-benzimidazole]

ED50 ((H^+ -K^+)ATP-ase; sc, administered subcutaneously): 1 mg/kg
IC50 (gastric(H^+ -K^+)ATP-ase): 10 µM
Compound: COc1ccc2nc([S+]([O-])Cc3nccc4c3CCCO4)[nH]c2c1 (stereo not shown) [Example 6, 2-[(6-Azachroman-5-yl)methyl]sulfinyl-5-methoxybenzimidazole]
ED50 (gastric acid secretion; administered intraduodenally, read-out: ED50, rat gastric antisecretory assay): 0.7 mg/kg

IC50 [1]: 0.8 µM
Compound: COc1ccc2nc([S+]([O-])Cc3nccc4c3CCCC4)[nH]c2c1 (stereo not shown) [Example 4, 2-[(5,6,7,8-Tetrahydroisoquinolin-1-yl)methyl]sulfinyl-5-methoxybenzimidazole]
ED50 (gastric acid secretion; sc, administered subcutaneously, read-out: ED50, inhibition of gastric acid secretion): 1.8 mg/kg

t1/2 of inhibition of rat gastric (H+ + K+) ATPase activity (duration of action) ((H^+ -K^+)ATP-ase): 96 h
Compound: [O-][S+](Cc1nccc2c1CCCC2)c1nc2ccccc2[nH]1 (stereo not shown) [2-[(5,6,7,8-tetrahydroisoquinolin-1-ylmethyl)sulfinyl]benzimidazole]
